Data on 7 compounds can be found in patent US20230127559A1, “PEPTIDE ANALOGS AND USE OF SAME IN TREATING DISEASES, DISORDERS OR CONDITIONS ASSOCIATED WITH MUTANT P53 PROTEIN” (YEDA RESEARCH AND DEVELOPMENT CO. LTD., priority 2020, published 2023).

Where two headings read alike, the source gives them in different places. Where a SMILES comes first, the peptide text is derived from it. Bridges are numbered along the chain shown (N, C = ends). [ ]: non-standard residue; d: D form. The star is where a group is joined. Stearoyl = CCCCCCCCCCCCCCCCCC(=O)*; Dab = NCC[C@H](N)C(=O)O; Dmp = di-methyl proline

Series [1] has as its system MIA PaCa-2 (pancreatic carcinoma) cells, p53R248W. The class given is cell-based. How it is done: (§1) Cells were cultured in 96 wells plates with 2500-4000 cells/well. Serial dilutions of different peptides were added and the plates incubated for additional 48 h at 37° C. Then medium was removed and cell viability was determined by staining the cells with crystal violet (0.05%) in methanol/PBS (1:5, v/v), for 10 min, followed by 3 washes with PBS. 10% acetic acid was added to each well for 10 min. OD was determined at 595 nm.
(§2) The IC50 tables presented in FIGS. 17-20 are from several representative experiments performed on cell lines expressing several p53 hotspot mutations, as well as control non-transformed cells: […]

Series [2] concerns PANC1 (pancreatic carcinoma) cells, p53R273H. The class given is cell-based. How it is done: as §1, §2
Series [3] deals with panel of cell lines expressing mutp53. It counts as cell-based. The note with it: for IC50: 48 h. How it is done: as §1
(§3) The IC50 tables presented in FIGS. 17-20 are from several representative experiments performed on cell lines expressing several p53 hotspot mutations, as well as control non-transformed cells:
Proline residue position—Based on alanine scanning and molecular dynamics analyses, it is believed that the proline residue at the 6th position from the N-terminal is critical for the peptide's 3D structure and provides some rigidity required for peptide binding and activity. Therefore, it was hypothesized that a change in orientation or tetrahedral angle might increase the affinity of the peptide for p53. Six new peptides were synthesized replacing this proline residue with proline analogs (pCAPs 708-712, and pCAP-716, SEQ ID NOS: 6-10 and 14, respectively). This set of peptides was tested for activity on a panel of cell lines expressing mutp53, and compared it to pCAP-674 (SEQ ID NO: 27) and to the scrambled sequence peptides pCAP-721 (SEQ ID NO: 19) and pCAP-722 (SEQ ID NO: 20).

Series [4] concerns SW-480 (colon carcinoma) cells, p53R273H, P309S. It counts as cell-based. Here is the method:
as §1, §2

The subject of series [5] is WI38 (non-transformed fibroblasts) cells, wtp53. It counts as cell-based. Here is the method: as §1, §2
In series [6] the test system is RXF-393 (renal carcinoma) cells, p53R175H. The class given is cell-based, human. Here is the method: as §1, §3
Fatty acid position. Lead peptides were modified with N-terminal myristic acid to enable the penetration of peptides across the cell membrane. Although myristic acid is usually the default choice for cell permeability, additional options were explored of longer fatty acids and to examine the effect on peptide efficacy in terms of cancer cell killing. A standard crystal violet viability test was performed on human renal carcinoma RXF-393 cells, comparing the original pCAP-553, which has myristic acid (C14), with 4 derivative peptides modified with longer fatty acid chains: palmitic (C16), stearic (C18), […] (C20) and behenic (C22).

Series [7] deals with PC9 (lung carcinoma) cells, p53R248Q. It counts as cell-based. How it is done:
as §1, §2

The test system of series [8] is RXF-393 renal cell carcinoma (RCC) cell line, endogenously expressing p53R175H. The experiment in a line: RXF-393 luciferase xenograft model, tumor growth by IVIS. The note with it: for tumor growth, average IVIS signal (in words): subcutaneous injections 20 mg/Kg, 2 days a week. It counts as in vivo, athymic Nude-Foxn1nu mice. An excerpt: To investigate the efficacy of the lead peptides in vivo, a representative cancer cell line-based xenograft model was employed. The selection of the in vivo model was based on the peptide/cell line combination that yielded the strongest effects in culture: human renal carcinoma RXF-393 cells. The peptide analog pCAP-724 (SEQ ID NO: 22), administered by subcutaneous injections and sustained subcutaneous release, was compared to the control scrambled peptide pCAP-722 (SEQ ID NO: 20). Tumor growth was monitored by luciferase activity, measured in an IVIS200® Spectrum system that combines 2D optical and 3D optical tomography in one platform. The system uses leading optical technology for preclinical imaging research and development, ideal for non-invasive longitudinal monitoring of disease progression in living animals
The RXF-393 renal cell carcinoma (RCC) cell line, endogenously expressing p53R175H, and stably expressing Luciferase was utilized. • 1. 0.75×10^6 cells in 50% HBSS 50% Cultrex (1000) were injected subcutaneously, into both hips of athymic Nude-Foxn1nu mice (6 weeks old). • 2. Tumor growth over time was measured by live imaging, using the […] system. Exposure time was calibrated to 20 sec and peak luminescence values were taken for each tumor. • 3. 21 and 24 days after injection of cells, when tumors reached visible size (50-100 mm^3) and an average IVIS signal of 10^7 (100-fold over threshold), the mice were randomly divided into several groups (5 or 6 mice per each group), according to the mode of administration and peptides: • Subcutaneous injections, performed 2 days a week for 3-4 weeks (20 mg/Kg). Two injections will be given for each day of treatment 16 h interval to allow effective level of peptide for 24 h. […]
• 4. Tumor growth over time was measured by live imaging, twice a week. The experiment was conducted until tumors reached the maximal allowed size of 1 cm^3, at which time mice were sacrificed, tumors extracted, measured, photographed, and weighed.

Series [9] is described as follows: Pharmacokinetic profile, LC-MS of peptide concentration in plasma. The class given is in vivo, mice. How it is done: FIG. 21 depicts PK profile for pCAP-724 (SEQ ID NO:22). LC-MS analysis of peptide concentration in the plasma of injected mice. Each point represents an average reading from 3 mice. Shown are mean plasma concentrations (mpk) of the peptide, following administration either intravenously at 1 mg/kg (IV) or subcutaneously at 5 mg/kg (SC).
Each point represents the average from 3 mice. When administered subcutaneously into mice, pCAP-724 levels reach a maximal concentration after 2 h and a show a half-life (T1/2) of about 10 h. […] From the PK study, it is estimated that a continuous long-acting administration of 20 mg/kg/day of pCAP-724 (SEQ ID NO: 22) will yield a steady state concentration in the blood of about 7-10 μM.

For orientation: IC50 means the point on the concentration scale where inhibition reaches its midpoint.

In series [1] (48 h), `CCCCCCCCCCCCCCCCCC(=O)N[C@@H](CCCNC(=N)N)C(=O)N[C@@H](CCCNC(=N)N)C(=O)N[C@@H](Cc1c[nH]cn1)C(=O)N[C@@H](CO)C(=O)N[C@H]1CCCCNC(=O)[C@H](CC(=O)O)NC(=O)[C@@H]2CCCN2C(=O)[C@H](CCN)NC(=O)[C@@H]2CCCN2C1=O` [pCAP-713, str-RRHSKP(Dab)PD-Cyc] (Stearoyl-RRHSKP[Dab]PD; lactam 5-C) had an IC50 of 300 nM. The same compound came in with an IC50 in series [2] (48 h) of 1050 nM. In addition, in series [3], the “activity in viability assays compared with other peptides (in words)” value was “highest activity” and the IC50 was 100 to 1000 nM. In [3] (FIGS. 18-20), the “increase in activity over pCAP-674” value is given as 1.5-3 folds and the “increase in activity over the original pCAP-553” value is reported as 4-10 folds.

In the case of `CCCCCCCCCCCCCCCCCC(=O)N[C@@H](CCCNC(=N)N)C(=O)N[C@@H](CCCNC(=N)N)C(=O)N[C@@H](Cc1c[nH]cn1)C(=O)N[C@@H](CO)C(=O)N[C@@H](C(=O)N1CCC[C@H]1C(=O)N[C@@H](CCN)C(=O)N1CCC[C@H]1C(=O)N[C@@H](CC(=O)O)C(N)=O)C(C)C` [pCAP-717, str-RRHSvP(Dab)PD-NH2] (Stearoyl-RRHS[dV]P[Dab]PD-NH2), the IC50 was 300 nM in series [1] (48 h), 2150 nM in [2] (48 h), 1200 nM in series [4] (48 h) and 35000 nM in [5] (48 h).

As to `CCCCCCCCCCCCCCCCCC(=O)N[C@@H](CCCNC(=N)N)C(=O)N[C@@H](CCCNC(=N)N)C(=O)N[C@@H](Cc1c[nH]cn1)C(=O)N[C@@H](CO)C(=O)N[C@@H](C(=O)N1CCC[C@@H]1C(=O)N[C@@H](CCN)C(=O)N1CCC[C@H]1C(=O)N[C@@H](CC(=O)O)C(=O)NCC(=O)N[C@@H](CCC(=O)O)C(=O)N[C@@H](C)C(=O)O)C(C)C` [pCAP-720, str-RRHSvp(Dab)PDGEA] (Stearoyl-RRHS[dV][dP][Dab]PDGEA-OH; C-terminus assumed), the IC50 in series [1] (48 h) worked out at 300 nM; in series [2] (48 h), 1240 nM; in series [4] (48 h), 1200 nM; in series [5] (48 h), 32000 nM. The “activity in viability assays compared with other peptides (in words)” value in series [3] is “comparable activity to pCAP-717”.

As for `CCCCCCCCCCCCCCCCCC(=O)N[C@@H](CC(=O)O)C(=O)N1CCC[C@H]1C(=O)N[C@@H](Cc1c[nH]cn1)C(=O)N[C@@H](C(=O)N[C@@H](CO)C(=O)N1CCC[C@H]1C(=O)N[C@@H](CCCNC(=N)N)C(=O)N[C@@H](CCN)C(=O)N[C@@H](CCCNC(=N)N)C(N)=O)C(C)C` [pCAP-722, str-DPHvSPR(Dab)R-NH2, reference compound] (Stearoyl-DPH[dV]SPR[Dab]R-NH2), the IC50 in series [6] (48 h), in [2] (48 h), in [7] (48 h) and in series [5] (48 h) was more than 40000 nM throughout. The “tumor growth, average IVIS signal (in words)” value in series [8] is listed as “continued its exponential growth”.

`CCCCCCCCCCCCCCCCCC(=O)N[C@@H](CCCNC(=N)N)C(=O)N[C@@H](CCCNC(=N)N)C(=O)N[C@@H](Cc1c[nH]cn1)C(=O)N[C@@H](CO)C(=O)N[C@@H]1CCCCNC(=O)[C@H](CC(=O)O)NC(=O)[C@@H]2CCCN2C(=O)[C@H](CCN)NC(=O)[C@H]2CCCN2C1=O` [pCAP-724, str-RRHSkp(Dab)PD-Cyc] (Stearoyl-RRHS[dK][dP][Dab]PD; lactam 5-C): the IC50 in series [1] (48 h) is 250 nM; in series [2] (48 h), 1020 nM; in series [4] (48 h), 650 nM; in series [5] (48 h), 32000 nM; in [3], 100 to 1000 nM. Also, in series [3], the “activity in viability assays compared with other peptides (in words)” value was “modest increase in activity compared with pCAP-713”. In series [9] (continuous long-acting administration of 20 mg/kg/day), the “estimated steady state concentration in the blood” value is 7 to 10 µM. Further, in series [9] (mouse, in vivo, sc, 5 mg/kg, administered subcutaneously into mice, read-out: half-life (T1/2) (converted)), the half-life was approximately 10 h. The Tmax in series [9] (mouse, plasma, sc, 5 mg/kg, administered subcutaneously into mice, read-out: time of maximal plasma concentration) was found to be 2 h. The “decrease in tumor signal (IVIS)” value in [8] (Alzet mini pumps 20 mg/Kg/Day SC continuous, within 14 days) is listed as 5 fold. The “tumor growth, average IVIS signal (in words)” value in [8] is listed as “slowed down tumor growth for the first 10 days”.

On to `CCCCCCCCCCCCCCCCCC(=O)N[C@@H](CC(=O)O)C(=O)N1CCC[C@H]1C(=O)N[C@@H](Cc1c[nH]cn1)C(=O)N[C@H]1CCCCNC(=O)[C@H](CCCNC(=N)N)NC(=O)[C@H](CCN)NC(=O)[C@H](CCCNC(=N)N)NC(=O)[C@@H]2CCCN2C(=O)[C@H](CO)NC1=O` [pCAP-725, str-DPHKSPR(Dab)R-Cyc, reference compound] (Stearoyl-DPHKSPR[Dab]R; lactam 4-C), for which the IC50 in series [1] (48 h) was more than 30000 nM; in series [2] (48 h), more than 40000 nM; in [4] (48 h), more than 30000 nM; in series [5] (48 h) it was more than 40000 nM.

With “str-RRHSv(Dmp)(Dab)PD-NH2 (Stearoyl-RRHS[dV][Dmp][Dab]PD-NH2) [pCAP-716, Dmp—Di-methyl proline]”, the half-maximal inhibitory concentration (IC50) in [6] (FIG. 19, read-out: RXF IC50) was 420 nM; in series [6] (FIG. 20, read-out: RXF 393 IC50) it was 300 nM; in [1] (FIG. 20, read-out: MIAPaca IC50) it was 300 nM; in series [2] (FIG. 19, read-out: PANCI IC50), 2000 nM; in [7] (FIG. 19, read-out: PC9 IC50), 630 nM; in series [7] (FIG. 20, read-out: PC9 IC50), 700 nM. Also, the IC50 in series [4] (FIG. 20, read-out: SW-480 IC50) is 1000 nM; in [5] (FIG. 19, read-out: WI38 IC50) it was 33000 nM. The “activity in viability assays compared with other peptides (in words)” value in series [3] is listed as “consistently modestly improved activity over pCAP-674”; in series [3] (listed as 716), “highest activity”.
